Results as given in ChEMBL document CHEMBL3352640, “Carbonic anhydrase inhibitors: design, synthesis, and biological evaluation of novel sulfonyl semicarbazide derivatives” (ACS Med Chem Lett, 2014).

Molecular target: Carbonic anhydrase 9 (Homo sapiens, UniProt Q16790)
Experiment: Inhibition of human carbonic anhydrase 9 preincubated for 15 mins by stopped flow CO2 hydration assay

Structure (SMILES) | Ki
NS(=O)(=O)c1ccc(NC(=O)NNS(=O)(=O)c2ccccc2)cc1 | 73.9 nM
NS(=O)(=O)c1ccc(NC(=O)NNS(=O)(=O)c2ccc(Cl)cc2)cc1 | 23.1 nM
NS(=O)(=O)c1ccc(NC(=O)NNS(=O)(=O)c2ccc(Br)cc2)cc1 | 30.4 nM
Cc1ccc(S(=O)(=O)NNC(=O)Nc2ccc(S(N)(=O)=O)cc2)cc1 | 24 nM
CC(=O)Nc1ccc(S(=O)(=O)NNC(=O)Nc2ccc(S(N)(=O)=O)cc2)cc1 | 81.3 nM

More lines, in order of falling Ki, values ahead:

Ki | Structure (SMILES)
80.4 nM | COc1ccc(S(=O)(=O)NNC(=O)Nc2ccc(S(N)(=O)=O)cc2)cc1
38.7 nM | NS(=O)(=O)c1ccc(NC(=O)NNS(=O)(=O)c2ccc(Cl)c([N+](=O)[O-])c2)cc1
25.1 nM | NS(=O)(=O)c1ccc(NC(=O)NNS(=O)(=O)c2ccc(F)cc2)cc1
20.5 nM | NS(=O)(=O)c1ccc(NC(=O)NNS(=O)(=O)c2ccc([N+](=O)[O-])cc2)cc1
